Measured values published in US20220098191A1 (priority 2019, published 2022).
Values joined by “and” are separate entries in the source; they are usually repeats but may differ in a detail not shown here. Equal values may be shown once.

Tests used:
SW48 (Gastric) = test: MTT in vitro cytotoxicity, 72 hour incubation; type: cell-based; conditions: Homo sapiens, MTT assay, SW48 cells
Procedure: (§1) The in vitro cytotoxicity of a selection of compounds was determined in a panel of cell lines using the standard MTT assay for a 72 hour incubation period (Table 1).
(§2) Tumor cell lines were maintained in RPMI1640 medium supplemented with 10% heat-inactivated fetal bovine serum, 2 mM L-glutamine and 1 mM sodium pyruvate. 1800 cells per well were seeded in a volume of 180 μl in a 96-well flat bottom polystyrene plate. The cells were allowed to adhere overnight at 37° C. in a CO2 incubator. Ligands were initially formulated in DMSO, and stocks stored at −80° C. They were then further formulated at lox concentration in RPMI1640 medium. 20 μl of diluted samples were added into each treatment well. On each plate, blank wells with no cells, and untreated wells containing cells, were included. Plates were then cultured at 37° C. in a CO2 incubator for 72 hrs. Cytotoxicity was evaluated using a tetrazolium salt-based assay, the MTT assay. After 72 hours, the supernatant was removed from each well and 200 μl of a sterile filtered 500 μg/ml MTT solution in water added to each well. The plates were then incubated at 37° C. in a CO2 incubator for 4 hrs. The supernatant was then removed and the formazan crystals formed solubilized by adding 150 μl of DMSO to each well. The plate was then read on a plate reader at 540 nm, and percentage cell survival calculated as follows: ((mean absorbance treated wells at concentration×−mean absorbance blank wells)÷(mean absorbance untreated wells at concentration×−mean absorbance blank wells))×100. Data were plotted as concentration in nM vs. % cell survival in Microsoft Excel, and IC50 values (concentration where cell survival is reduced by a half) were determined from the graph.

SW620 (Gastric) = test: MTT in vitro cytotoxicity, 72 hour incubation; type: cell-based; conditions: Homo sapiens, SW-620, MTT assay, SW620 cells
Procedure: as §1, §2

RAJI (Lymphoma) = test: MTT in vitro cytotoxicity, 72 hour incubation; type: cell-based; conditions: Homo sapiens, MTT assay, RAJI cells
Procedure: as §1, §2

LIM1215 (Gastric) = test: MTT in vitro cytotoxicity, 72 hour incubation; type: cell-based; conditions: MTT assay, LIM1215 cells
Procedure: as §1, §2

Jurkat (Leukaemia) = test: MTT in vitro cytotoxicity, 72 hour incubation; type: cell-based; conditions: Homo sapiens, MTT assay, Jurkat cells
Procedure: as §1, §2

JVM2 (Lymphoma) = test: MTT in vitro cytotoxicity, 72 hour incubation; type: cell-based; conditions: Homo sapiens, JVM-2, MTT assay, JVM2 cells
Procedure: as §1, §2

[1] = Hydrophobicity investigation of free payloads by UPLC (hydrophobicity model); type: physicochemical; conditions: single runs 1-3 (triplicate), 0.1% TFA water/acetonitrile gradient
Procedure: Both mobile phases were filtered through 0.22 μm filters and degassed by sonication under argon. Caffeine (Merck, UPLC grade) was employed a standard. Blank solvent samples (i.e., DMSO) were used during sample runs to confirm lack of carryover between injections and to monitor column performance.
UPLC-MS analysis was performed on a Waters Acquity H-Class Ultra-Performance Liquid Chromatography (UPLC) System equipped with an Acquity UPLC BEH, […] 50×2.10 mm (Waters, UK) column and a photodiode array detector […], using Waters MassLynx software. The gradient system used for LC analysis consisted of 0.1% trifluoroacetic acid (TFA) in water as Solvent A, and 0.1% trifluoroacetic acid (TFA) in acetonitrile as Solvent B. TFA was purchased from Merck (UK), and diluted to the required concentration with UPLC grade water and acetonitrile for Solvent A and Solvent B, respectively. TFA was added to ensure acidic conditions throughout the analysis. A flow rate of 0.4 mL/min was used, and the detection wavelength was 254 nm. Mass spectrometry data were collected using a Waters SQ Detector 2 coupled to a Waters Acquity H Class UPLC and a Photo Diode Array Detector (ACQ-PDA). The Waters SQ Detector 2 parameters were set to: Capillary (kV), 3.00; Cone (V), 30; De-solvation Temperature (° C.), 600; Cone flow rate (L/h), 50; De-solvation flow rate (L/h), 600.
Gradient method used: from 95% A/5% B to 20% B over 5 min. Then from 20% B to 60% B over 35 min, followed by from 60% B to 85% B over 10 min. It was further changed from 85% B to 90% B over 5 min and kept for a further 5 min. Finally, from 90% B to 95% B over 2.5 min, and then to 20% B over 2.5 min. 10 μL was split via a zero-dead volume T-piece which passed into the mass spectrometer.
Compounds were provided in powder form and were dissolved in DMSO to achieve 5 mM stock solution. This solution was then diluted to 500 μM with 50% acetonitrile/50% water.
A number of commercially available ADC payloads and internal reference compounds were also incorporated into the analysis, and their structures are presented in Table 3.

SMILES	IC50 (SW48 (Gastric))	IC50 (SW620 (Gastric))	IC50 (RAJI (Lymphoma))	IC50 (LIM1215 (Gastric))	IC50 (Jurkat (Leukaemia))	IC50 (JVM2 (Lymphoma))	Retention Time (min) seco form ([1]; seco form)	Retention Time (min) spiro form ([1]; spiro form)
CNS(=O)(=O)c1ccc(C2=CCN3C(=O)c4cc(OC)c(OCCCCCC(=O)N5C[C@@H](CCl)c6c5cc(O)c5ccccc65)cc4N=C[C@@H]3C2)cc1 [Compound 72, 4-((S)-3-((6-((S)-1-(Chloromethyl)-5-hydroxy-1,2-dihydro-3H-benzo[e]indol-3-yl)-6-oxohexyl)oxy)-2-methoxy-12-oxo-6a,7,10,12-tetrahydrobenzo[e]pyrido[1,2-a][1,4]diazepin-8-yl)-N-methylbenzenesulfonamide]	0.29 nM	0.21 nM	0.0019 nM	0.32 nM	0.0015 nM	0.0016 nM	24.02 min and 24.04 min	17.11 min and 17.15 min
CNS(=O)(=O)c1ccc(C2=CCN3C(=O)c4cc(OC)c(OCc5cccc(CC(=O)N6C[C@@H](CCl)c7c6cc(O)c6ccccc76)c5)cc4N=C[C@@H]3C2)cc1 [Compound 31, 4-((S)-3-((3-(2-((S)-1-(Chloromethyl)-5-hydroxy-1,2-dihydro-3H-benzo[e]indol-3-yl)-2-oxoethyl)benzyl)oxy)-2-methoxy-12-oxo-6a,7,10,12-tetrahydrobenzo[e]pyrido[1,2-a][1,4]diazepin-8-yl)-N-methylbenzenesulfonamide]	1.3 nM	0.35 nM	–	2.7 nM	–	–	–	–
CNS(=O)(=O)c1ccc(C2=CCN3C(=O)c4cc(OC)c(OCc5cccc(CC(=O)N6C[C@@H](CCl)c7c6cc(O)c6ccccc76)n5)cc4N=C[C@@H]3C2)cc1 [Compound 35, 4-((S)-3-((6-(2-((S)-1-(Chloromethyl)-5-hydroxy-1,2-dihydro-3H-benzo[e]indol-3-yl)-2-oxoethyl)pyridin-2-yl)methoxy)-2-methoxy-12-oxo-6a,7,10,12-tetrahydrobenzo[e]pyrido[1,2-a][1,4]diazepin-8-yl)-N-methylbenzenesulfonamide]	3.15 nM	2.12 nM	–	4.38 nM	–	–	–	–
